What was measured:
Type in all cases: biochemical
rat chymase = biological target: T1, rat chymase (Rattus norvegicus, UniProt P09650); test: Inhibitory activity on rat chymase (synthetic substrate); details: substrate succinyl leucyl leucyl valyl tyrosyl methylcoumarylamide; pH 8.0, 37° C., 15 min; read-out: Rat Chymase (IC50: nM), 50% inhibitory concentration
T1 construct: 50 g rat tongue was finely divided by scissors and a scalpel; from tissue; host or cells: rat tongue
T1 sequence (P09650 21-260): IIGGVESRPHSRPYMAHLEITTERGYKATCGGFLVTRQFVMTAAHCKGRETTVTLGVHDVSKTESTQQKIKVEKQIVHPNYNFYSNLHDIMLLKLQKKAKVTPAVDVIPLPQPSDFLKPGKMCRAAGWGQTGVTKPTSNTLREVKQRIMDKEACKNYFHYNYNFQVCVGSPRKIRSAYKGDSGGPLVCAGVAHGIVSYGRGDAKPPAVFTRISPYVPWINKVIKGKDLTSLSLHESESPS
Experimental: In the present invention, chymase was purified by the methods described in these literatures, and the present compounds were examined for inhibitory activity on chymase, inhibitory action on activation of mast cells and eosinophils, and pharmacological action in animals. Hereinafter, specific methods are described. […] 50 g rat tongue was finely divided by scissors and a scalpel, suspended in 0.1 M phosphate buffer (pH 8.0), and disrupted by a Polytron homogenizer for 5 minutes to prepare a crude chymase enzyme solution. […] The supernatant was applied to an octyl Sepharose 4B column (40×100 mm) previously equilibrated with 0.1 M phosphate buffer (pH 8.0) containing 2 M sodium chloride and 5% ammonium sulfate, and the protein was eluted with a linear concentration gradient of from 2 M to 0 M sodium chloride. […] (D) Measurement of inhibitory activity on chymase (a) Measurement using the synthetic substrate The synthetic chymase substrate was used for measurement of the inhibitory activity on the rat chymase as a subtrate, and the fluorescence of formed aminomethylcoumarin after reaction was measured by a spectrophotometer. […] The test was conducted several times. Chymase was prepared for each test in the manner described above. The compounds examined were compounds prepared in the above-described examples. […] Succinyl leucyl leucyl valyl tyrosyl methylcoumarylamide (for rat […] angiotensin I (for human and dog chymase)

dog chymase = biological target: T2, dog chymase (Canis lupus familiaris, UniProt P21842); test: Inhibitory activity on dog chymase (angiotensin I as substrate); details: pH 8.0, 37° C., 60 min, read-out: Dog Chymase (IC50: nM), 50% inhibitory concentration
T2 construct: 60 g dog heart was finely divided by scissors and a scalpel; from tissue; host or cells: dog heart
T2 sequence (P21842 22-249): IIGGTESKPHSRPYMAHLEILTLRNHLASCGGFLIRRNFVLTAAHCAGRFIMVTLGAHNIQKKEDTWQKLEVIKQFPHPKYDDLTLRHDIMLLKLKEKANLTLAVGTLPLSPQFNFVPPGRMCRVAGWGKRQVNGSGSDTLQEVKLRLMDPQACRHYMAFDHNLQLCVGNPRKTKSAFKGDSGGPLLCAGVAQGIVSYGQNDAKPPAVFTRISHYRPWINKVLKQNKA
Description: It is known that chymase is present in tissues of various animals, and its isolation and purification methods are described in Anal. Biochem., 137, 449 (1984) and FEBS Letters, 323, 119 (1993). In the present invention, chymase was purified by the methods described in these literatures, and the present compounds were examined for inhibitory activity on chymase, inhibitory action on activation of mast cells and eosinophils, and pharmacological action in animals. Hereinafter, specific methods are described. (c) Preparation of dog chymase 60 g dog heart was finely divided by scissors and a scalpel, suspended in 0.1 M phosphate buffer (pH 8.0), and disrupted by a Polytron homogenizer for 5 minutes to prepare a crude chymase enzyme solution. It was centrifuged at 22000×g for 15 minutes, and the precipitates were used as a chymase enzyme fraction. […] An active fraction decomposing the synthetic chymase substrate was recovered and concentrated and this product was used as a purified dog chymase in the following activity measurement. (D) Measurement of inhibitory activity on chymase (b) Measurement using angiotensin I as substrate The inhibitory activity on the human chymase and dog chymase was measured using angiotensin I (Peptide Kenkyusho) as substrate besides the above synthetic substrate. […] After the end of the reaction, produced angiotensin II was immediately measured by high performance liquid chromatography to determine the activity of the chymase to calculate 50% inhibitory concentration (IC50: nM). The test was conducted several times. Chymase was prepared for each test in the manner described above. The compounds examined were compounds prepared in the above-described examples. […] 50% Inhibitory concentration (IC50: nM) of each compound toward rat chymase, dog […] human […] Substrate: Succinyl leucyl leucyl valyl tyrosyl methylcoumarylamide (for rat […] angiotensin I (for human and dog chymase)

human chymase = biological target: T3, human chymase (Homo sapiens, UniProt P23946); test: Inhibitory activity on human chymase (angiotensin I as substrate); details: for IC50: substrate angiotensin I, pH 8.0, 37° C., 60 min, read-out: Human Chymase (IC50: nM), 50% inhibitory concentration
T3 construct: 60 g human tonsils were finely divided by scissors and a scalpel; from tissue; host or cells: human tonsils
T3 sequence (P23946 22-247): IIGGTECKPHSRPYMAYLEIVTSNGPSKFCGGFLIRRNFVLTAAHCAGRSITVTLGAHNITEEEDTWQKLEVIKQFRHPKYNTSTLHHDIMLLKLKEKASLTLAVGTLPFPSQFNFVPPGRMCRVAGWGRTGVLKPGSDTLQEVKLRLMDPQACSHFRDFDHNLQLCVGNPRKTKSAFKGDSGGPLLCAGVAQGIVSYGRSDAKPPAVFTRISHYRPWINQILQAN
Description: It is known that chymase is present in tissues of various animals, and its isolation and purification methods are described in Anal. Biochem., 137, 449 (1984) and FEBS Letters, 323, 119 (1993). In the present invention, chymase was purified by the methods described in these literatures, and the present compounds were examined for inhibitory activity on chymase, inhibitory action on activation of mast cells and eosinophils, and pharmacological action in animals. Hereinafter, specific methods are described. 50 g rat tongue was finely divided by scissors and a scalpel, suspended in 0.1 M phosphate buffer (pH 8.0), and disrupted by a Polytron homogenizer for 5 minutes to prepare a crude chymase enzyme solution. […] The supernatant was applied to an octyl Sepharose 4B column (40×100 mm) previously equilibrated with 0.1 M phosphate buffer (pH 8.0) containing 2 M sodium chloride and 5% ammonium sulfate, and the protein was eluted with a linear concentration gradient of from 2 M to 0 M sodium chloride. An active fraction decomposing succinyl leucyl leucyl valyl tyrosyl methylcumarylamide (hereinafter referred to as the synthetic chymase substrate, a product of Peptide Kenkyusho) was recovered and concentrated and this product was used as a purified rat chymase in the following activity measurement. (B) Preparation of human chymase 60 g human tonsils were finely divided by scissors and a scalpel, suspended in 0.1 M phosphate buffer (pH 8.0), and A-disrupted by a Polytron homogenizer for 5 minutes to prepare a crude chymase enzyme solution. It was centrifuged at 22000×g for 30 minutes, and the precipitates were used as a chymase enzyme fraction. […] The supernatant was concentrated by an ultrafiltration membrane, then applied to […] column (6.0×300 mm), and eluted with 0.1 M phosphate buffer (pH 8.0). An active fraction decomposing the synthetic chymase substrate was recovered and concentrated and this product was used as a purified human chymase in the following activity measurement. (D) Measurement of inhibitory activity on chymase (b) Measurement using angiotensin I as substrate The inhibitory activity on the human chymase and dog chymase was measured using angiotensin I (Peptide Kenkyusho) as substrate besides the above synthetic substrate. […] After the end of the reaction, produced angiotensin II was immediately measured by high performance liquid chromatography to determine the activity of the chymase to calculate 50% inhibitory concentration (IC50: nM). The test was conducted several times. Chymase was prepared for each test in the manner described above. The compounds examined were compounds prepared in the above-described examples. […] 50% Inhibitory concentration (IC50: nM) of each compound toward rat chymase, dog […] human […] Substrate: Succinyl leucyl leucyl valyl tyrosyl methylcoumarylamide (for rat […] angiotensin I (for human and dog chymase)

other human proteases = test: Inhibitory activity on other human proteases (summary)
Experimental: (E) Measurement of inhibitory activity on proteases other than chymase
The inhibitory activity of the present compounds on human elastase, human cathepsin G, human urokinase, human thrombin, human plasmin, and human factor Xa was determined using their corresponding synthetic substrates in the same manner as for chymase. All the above proteases were those commercially available from Boehringer Mannheim or purified by a combination of known methods. The synthetic substrates were those produced by Peptide Renkyusho. The synthetic substrates for the respective proteases are as follows.
The test was conducted several times. Chymase was prepared for each test in the manner described above. The compounds examined were compounds prepared in the above-described examples.

| IC50 (rat chymase) [nM] | IC50 (dog chymase) [nM] | IC50 (human chymase) [nM] | Structure (SMILES) | inhibitory activity on human chymase, in words (human chymase) | inhibitory activity on other human proteases, in words (other human proteases) |
| --- | --- | --- | --- | --- | --- |
| > 10000 | 33 | 314 | Nc1cnc(-c2ccccc2)n(CC(=O)NC(Cc2ccccc2)C(=O)C(=O)CCCC(=O)O)c1=O (centres unmarked) [Compound 48] | – | – |
| 690 | 19 | 73 | CC(=O)C(=O)C(Cc1ccc(O)c(F)c1)NC(=O)Cn1c(-c2ccccc2)ncc(N)c1=O (centres unmarked) [Compound 50] | strong inhibitory activity on human chymase | no inhibitory activity on other human proteases |
| 2800 | 494 | 1590 | Nc1cnc(-c2ccccc2)n(CC(=O)NC(Cc2ccccc2)C(=O)C(=O)c2ccccc2)c1=O (centres unmarked) [Compound 46] | – | – |
| 42 | 0.32 | 1.6 | O=C(Cn1c(-c2ccccc2)ncc(NC(=O)OCc2ccncc2)c1=O)NC(Cc1ccccc1)C(=O)C(=O)CCCOc1ccccn1 (centres unmarked) [Compound 78, 2-{6-oxo-2-phenyl-5-(4-pyridylmethyloxycarbonylamino)-1,6-dihydropyrimidine-1-yl}-N-{2,3-dioxo-1-phenylmethyl-6-(2-pyridyloxy)}hexylacetamide] | strong inhibitory activity on human chymase | no inhibitory activity on other human proteases |
| 150 | 0.29 | 114 | O=C(Cn1c(-c2ccccc2)ncc(NC(=O)C2CCOC2)c1=O)NC(Cc1ccccc1)C(=O)C(=O)CCCc1ccccc1 (centres unmarked) [Compound 81] | – | – |
| 340 | 71 | 2850 | CC(=O)C(=O)C(Cc1ccc(Cl)cc1)NC(=O)Cn1c(-c2ccccc2)ncc(N)c1=O (centres unmarked) [Compound 58] | – | – |
| 200 | 5 | 131 | CC(=O)C(=O)C(Cc1cccc(Cl)c1)NC(=O)Cn1c(-c2ccccc2)ncc(N)c1=O (centres unmarked) [Compound 62] | – | – |
| 2900 | 22 | 673 | CC(=O)C(=O)C(Cc1ccccc1)NC(=O)Cn1c(-c2ccccc2)ncc(NC(=O)OC(C)(C)C)c1=O (centres unmarked) [Compound 37, 2-(5-t-Butyloxycarbonylamino-6-oxo-1,6-dihydro-2-phenyl-1-pyrimidinyl)-N-(2,3-dioxo-1-phenylmethyl) butylacetamide] | – | – |
| 190 | 0.19 | 122 | CC(=O)Nc1cnc(-c2ccccc2)n(CC(=O)NC(Cc2ccccc2)C(=O)C(=O)CCCn2ccccc2=O)c1=O (centres unmarked) [Compound 76] | – | – |
| 220 | 1 | 2.6 | Nc1cnc(-c2ccccc2)n(CC(=O)NC(Cc2ccccc2)C(=O)C(=O)CCCOc2ccccn2)c1=O (centres unmarked) [Compound 75] | strong inhibitory activity on human chymase | no inhibitory activity on other human proteases |
| 740 | 13 | 148 | CC(C)(C)OC(=O)Nc1cnc(-c2ccccc2)n(CC(=O)NC(Cc2ccccc2)C(=O)C(=O)CCc2ccccc2)c1=O (centres unmarked) [Compound 41] | – | – |
| 48 | 1.4 | 7 | O=C(Cn1c(-c2ccccc2)ncc(NS(=O)(=O)Cc2ccccc2)c1=O)NC(Cc1ccccc1)C(=O)C(=O)CCCOc1ccccn1 (centres unmarked) [Compound 77, 2-(5-Benzylsulfonylamino-6-oxo-2-phenyl-1,6-dihydropyrimidine-1-yl)-N-{2,3-dioxo-1-phenylmethyl-6-(2-pyridyloxy)}hexylacetamide] | strong inhibitory activity on human chymase | no inhibitory activity on other human proteases |
| 920 | 98 | > 10000 | CC(=O)C(=O)C(Cc1ccc(F)cc1)NC(=O)Cn1c(-c2ccccc2)ncc(NC(=O)OC(C)(C)C)c1=O (centres unmarked) [Compound 55] | – | – |
| 450 | 9.1 | 101 | CC(=O)C(=O)C(Cc1cccc(C)c1)NC(=O)Cn1c(-c2ccccc2)ncc(N)c1=O (centres unmarked) [Compound 60] | – | – |

— US6271238A, “Acetamide derivatives and protease inhibitors” (Nippon Kayaku Kabushiki Kaisha, priority 1996, dated 2001)
